A short description of data set [1]: Drug level in human HT-29 cells expressing B-Raf V600E mutant xenografted nude mouse tumor at 100 mg/kg, po after 4 hrs. The format is ADME, organism-based, Neoplasm. Also noted: dose 100 mg/kg, route oral. The settings on record: read-out: Drug uptake. Background: Xenograft models place foreign cells or tissue in a host animal.
Data set [2] concerns MIA PaCa-2. Kind of data set: Antitumor activity against human MIAPaCa2 cells expressing K-Ras G12C mutant xenografted in nude mouse assessed as tumor growth inhibition at 25 mg/kg, po bid. As to conditions: read-out: GI. It is filed as functional.
Data set [3] relates to MIA PaCa-2. Briefly: Antitumor activity against human MIAPaCa2 cells expressing K-Ras G12C mutant xenografted in nude mouse assessed as tumor growth inhibition at 200 mg/kg, po bid. The format is functional. The settings on record: read-out: GI.
Data set [4] deals with HT-29. Kind of data set: Antitumor activity against human HT-29 cells expressing B-Raf V600E mutant xenografted in nude mouse assessed as tumor growth inhibition at 25 mg/kg, po bid. It is filed as functional. As to conditions: read-out: GI.
Data set [5] relates to Mus musculus. Briefly: Toxicity in human MIAPaCa2 cells expressing K-Ras G12C mutant xenografted nude mouse assessed as gross signs of adverse effect at 500 mg/kg, po administered weekly once for 3 weeks. It is filed as organism-based, MIA PaCa-2. Also noted: dose 500 mg/kg, route oral. The settings on record: in vivo, 504 h.
The subject of data set [6] is Mus musculus. Briefly: Inhibition of MEK-mediated ERK phosphorylation in tumor of human LOX cells expressing B-Raf V600E mutant xenografted nude mouse at 100 mg/kg, po after 4 hrs by Western blot analysis relative to control. It is filed as functional.
The nature of data set [7]: Antitumor activity against human LOX cells expressing B-Raf V600E mutant xenografted in nude mouse assessed as tumor growth inhibition at 12.5 mg/kg, po bid. The format is functional. As to conditions: read-out: GI.
Data set [8] concerns the target Dual specificity mitogen-activated protein kinase kinase; MEK1/2 (Homo sapiens) (UniProt P36507+Q02750). As to conditions: HT-29, 2 to 10 uM.
Description: Inhibition of MEK1/2 in human HT-29 cells assessed as down regulation of CDK4/cyclin D1 expression at 2 to 10 uM by Western blot analysis
Data set [9] in a line: Drug level in human HT-29 cells expressing B-Raf V600E mutant xenografted nude mouse tumor at 100 mg/kg, po after 2 hrs. It is filed as ADME, organism-based, Neoplasm. Also noted: dose 100 mg/kg, route oral. As to conditions: read-out: Drug uptake.
Data set [10] relates to HT-29. Briefly: Growth inhibition of human HT-29 cells expressing B-Raf V600E mutant by MTT assay. It is filed as functional, cell-based. On the technique in general: Tetrazolium dyes change colour on reduction, which living cells bring about.
The target of data set [11] is Dual specificity mitogen-activated protein kinase kinase 1 (Homo sapiens, UniProt Q02750). Briefly: Inhibition of MEK1.
Dual specificity mitogen-activated protein kinase kinase 1, sequence (Q02750 whole entry): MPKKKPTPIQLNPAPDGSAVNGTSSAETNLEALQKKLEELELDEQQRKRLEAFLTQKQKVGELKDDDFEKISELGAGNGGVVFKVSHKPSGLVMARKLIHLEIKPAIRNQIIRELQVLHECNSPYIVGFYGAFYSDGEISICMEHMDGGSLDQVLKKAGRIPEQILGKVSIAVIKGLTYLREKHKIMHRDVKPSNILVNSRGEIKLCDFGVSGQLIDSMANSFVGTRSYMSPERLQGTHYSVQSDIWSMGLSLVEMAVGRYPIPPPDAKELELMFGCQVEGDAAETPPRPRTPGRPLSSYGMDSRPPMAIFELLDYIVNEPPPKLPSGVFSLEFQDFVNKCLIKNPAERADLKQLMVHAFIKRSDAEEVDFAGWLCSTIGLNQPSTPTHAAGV
The nature of data set [12]: Cmax in human MIAPaCa2 cells expressing K-Ras G12C mutant xenografted nude mouse at 25 mg/kg, po bid. The format is ADME, organism-based, MIA PaCa-2. Also noted: dose 25 mg/kg, route oral. The settings on record: in vivo.
Data set [13] can be described thus: AUC (0 to 12 hrs) in human LOX cells expressing B-Raf V600E mutant xenografted nude mouse at 12.5 mg/kg, po bid. As to conditions: in vivo. The format is ADME, organism-based. Also noted: time < 12 hr, dose 12.5 mg/kg, route oral.
For data set [14], the system named is Mus musculus. Kind of data set: Inhibition of MEK-mediated ERK phosphorylation in tumor of human HT-29 cells expressing B-Raf V600E mutant xenografted nude mouse at 50 mg/kg, po after 12 hrs by Western blot analysis relative to control. It is filed as functional. As to conditions: HT-29, 12 h.
Data set [15] is described as follows: Drug level in human LOX cells expressing B-Raf V600E mutant xenografted nude mouse tumor at 100 mg/kg, po after 1 hr. The format is ADME, organism-based, Neoplasm. Also noted: dose 100 mg/kg, route oral. As to conditions: read-out: Drug uptake.
Data set [16] is described as follows: AUC (0 to 24 hrs) in human H460 cells expressing K-Ras Q61H mutant xenografted nude mouse at 200 mg/kg, po qd. Also noted: time < 24 hr, dose 200 mg/kg, route oral. As to conditions: in vivo. The format is ADME, organism-based.

The source made the active and inactive calls. The calls are words filed in the database; no cut-off is given here.

Dual specificity mitogen-activated protein kinase kinase; MEK1/2 (Homo sapiens), sequence (P36507 whole entry, looked up): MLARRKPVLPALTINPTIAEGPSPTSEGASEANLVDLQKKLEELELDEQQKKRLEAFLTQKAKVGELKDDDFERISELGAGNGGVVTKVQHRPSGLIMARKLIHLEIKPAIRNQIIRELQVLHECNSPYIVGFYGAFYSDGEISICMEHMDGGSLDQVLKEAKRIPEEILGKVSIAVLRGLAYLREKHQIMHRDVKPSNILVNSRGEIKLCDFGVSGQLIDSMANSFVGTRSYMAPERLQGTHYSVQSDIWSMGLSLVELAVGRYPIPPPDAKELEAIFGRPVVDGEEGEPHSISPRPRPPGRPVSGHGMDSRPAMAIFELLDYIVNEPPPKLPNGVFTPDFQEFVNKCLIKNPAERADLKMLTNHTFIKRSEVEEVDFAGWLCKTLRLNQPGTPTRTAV
Dual specificity mitogen-activated protein kinase kinase; MEK1/2 (Homo sapiens), sequence (Q02750 whole entry, looked up): as the sequence (Q02750 whole entry) above

With `C[C@@H](c1ccccc1)[C@@H](C(=O)Nc1ccc(I)cc1F)N1C(=O)N[C@H](c2ccc(OC[C@H](O)CO)cc2)C1=O`, the concentration at 4 h in [1] was 945 ng/g. For the same compound, the inhibition in vivo at 25 mg/kg in data set [2] turned out to be 71%; in data set [4], 65%. In addition, the inhibition in vivo at 200 mg/kg in [3] is 97%. Besides, the Activity result in [5] was “Non-toxic”. Besides, in data set [6], the inhibition in vivo at 100 mg/kg is 83%. Moreover, in data set [7], the inhibition in vivo at 12.5 mg/kg turned out to be 99%. Further, the inhibition result in data set [8] is “Active”. Besides, the concentration at 2 h in [9] is 2090 ng/g. The IC50 in data set [10] was found to be 110 nM; in [11], 25 nM. The IC90 in [10] was determined as 560 nM. Besides, the “growth inhibition (GI)” value in data set [10] (TDE = time-dependent effect) was “tde”. In addition, in [12], the highest level (Cmax) was 3960 ng/mL. The compound further yielded an AUC at 12 h in [13] of 4660 ng·h/mL. This compound displayed an inhibition in vivo at 50 mg/kg in data set [14] of 0%. For the same compound, in [15], the concentration at 1 h was 1030 ng/g. This compound had an AUC at 24 h in [16] of 122000 ng·h/mL.

What is called IC50 is the concentration that gives 50% inhibition. The low end stands for greater potency, the high end for weaker potency. What is called IC90 is the concentration at which the effect reaches the 90% level. By Cmax is commonly meant the highest concentration seen after dosing. As a reminder, the AUC is the area under the concentration-time curve, a measure of exposure. Read a high AUC as high exposure.

These data come from ChEMBL document CHEMBL1955803, “Preclinical in vivo evaluation of efficacy, pharmacokinetics, and pharmacodynamics of a novel MEK1/2 kinase inhibitor RO5068760 in multiple tumor models” (Mol Cancer Ther, 2010).
